Measurements taken from the NIST ThermoML archive (doi:10.1021/je7005133).
± gives the expanded uncertainty stated by the source.

c1ccc2c(c1)c1ccccc1c1ccccc21 [triphenylene]
Crystal
Conditions | vapor or sublimation pressure [kPa]
368.4 K | 1.7e-05 ± 1.8e-06
377.4 K | 4.48e-05 ± 4.5e-06
377.7 K | 4.51e-05 ± 4.6e-06
378 K | 4.64e-05 ± 4.7e-06
386.7 K | 0.000116 ± 1.2e-05
390.7 K | 0.000178 ± 1.8e-05
394.9 K | 0.000264 ± 2.7e-05
395 K | 0.000258 ± 2.6e-05
399.1 K | 0.000375 ± 3.8e-05

c1ccc2c(c1)Cc1ccccc1-2 [fluorene]
Crystal
Conditions | vapor or sublimation pressure [kPa]
298 K | 6.61e-05 ± 6.9e-06
298.1 K | 6.52e-05 ± 6.9e-06
299.8 K | 8.4e-05 ± 8.7e-06
301.4 K | 9.88e-05 ± 1e-05
304.3 K | 0.000141 ± 1.4e-05
306.6 K | 0.000178 ± 2.1e-05
306.9 K | 0.000195 ± 2.3e-05
308.1 K | 0.000218 ± 2.2e-05
309.8 K | 0.000261 ± 2.7e-05
311.2 K | 0.000301 ± 3.1e-05
314.3 K | 0.000414 ± 4.2e-05
316 K | 0.00046 ± 4.7e-05
316.5 K | 0.000531 ± 5.6e-05
317.3 K | 0.000581 ± 6e-05
317.6 K | 0.000613 ± 6.5e-05
320.3 K | 0.00076 ± 7.9e-05
324.4 K | 0.00127 ± 0.00027

c1cc2c3c(cccc3c1)CC2 [acenaphthene]
Crystal
Conditions | vapor or sublimation pressure [kPa]
297.6 K | 0.00029 ± 3e-05
299.7 K | 0.000362 ± 3.7e-05
300.5 K | 0.000413 ± 4.2e-05
301.6 K | 0.00044 ± 4.5e-05
302.8 K | 0.000508 ± 5.2e-05
306.1 K | 0.000693 ± 7.1e-05
310.7 K | 0.00112 ± 0.00023
315.6 K | 0.0018 ± 0.00041

c1ccc2c(c1)cc1ccc3cccc4ccc2c1c34 [benzo[a]pyrene]
Crystal
Conditions | vapor or sublimation pressure [kPa]
392.3 K | 7.31e-05 ± 7.4e-06
393.5 K | 7.96e-05 ± 8.3e-06
397.8 K | 0.000129 ± 1.3e-05
400.8 K | 0.000167 ± 1.7e-05
402.3 K | 0.00018 ± 1.8e-05
405.2 K | 0.000217 ± 2.2e-05
406.6 K | 0.000273 ± 2.8e-05
411.5 K | 0.000394 ± 4.3e-05
411.8 K | 0.000418 ± 4.5e-05
415.1 K | 0.000494 ± 5.4e-05
415.5 K | 0.000537 ± 5.8e-05
419 K | 0.000697 ± 7e-05
419.7 K | 0.000733 ± 7.4e-05
421.2 K | 0.000785 ± 7.9e-05
423.8 K | 0.00098 ± 9.9e-05
423.9 K | 0.00102 ± 0.00021

c1ccc2cc3ccccc3cc2c1 [anthracene]
Crystal
Conditions | vapor or sublimation pressure [kPa]
322.2 K | 1.6e-05 ± 1.7e-06
327 K | 2.6e-05 ± 2.7e-06
329.1 K | 3.33e-05 ± 3.4e-06
333.4 K | 4.91e-05 ± 5e-06
336.3 K | 7.2e-05 ± 7.4e-06
338.7 K | 9.43e-05 ± 9.6e-06
340.4 K | 0.00011 ± 1.1e-05
341.2 K | 0.000119 ± 1.2e-05
342.3 K | 0.000131 ± 1.3e-05
343.6 K | 0.000141 ± 1.4e-05
344.2 K | 0.000164 ± 1.7e-05
346.4 K | 0.000192 ± 2e-05
348.2 K | 0.00026 ± 2.7e-05

c1ccc2c(c1)-c1cccc3cccc-2c13 [fluoranthene]
Crystal
Conditions | vapor or sublimation pressure [kPa]
326.8 K | 3.96e-05 ± 4.1e-06
326.9 K | 4.11e-05 ± 4.3e-06
331 K | 6.16e-05 ± 6.2e-06
331.8 K | 6.32e-05 ± 6.4e-06
336.7 K | 0.000117 ± 1.2e-05
338.7 K | 0.000129 ± 1.3e-05
338.8 K | 0.000131 ± 1.3e-05
338.9 K | 0.000144 ± 1.5e-05
340.2 K | 0.000154 ± 1.6e-05
342.5 K | 0.000206 ± 2.1e-05
343.9 K | 0.000248 ± 2.5e-05
345.3 K | 0.000258 ± 2.6e-05
348 K | 0.00033 ± 3.3e-05
348.5 K | 0.000341 ± 3.4e-05
350.9 K | 0.000463 ± 4.7e-05
354.1 K | 0.00058 ± 6e-05
359.2 K | 0.00105 ± 0.00021

c1cc2cccc3c4cccc5cccc(c(c1)c23)c54 [perylene]
Crystal
Conditions | vapor or sublimation pressure [kPa]
390 K | 1.37e-05 ± 1.4e-06
390.5 K | 1.47e-05 ± 1.5e-06
391.2 K | 1.49e-05 ± 1.6e-06
393.7 K | 2.15e-05 ± 2.2e-06
397.7 K | 3.15e-05 ± 3.2e-06
398.3 K | 3.03e-05 ± 3.1e-06
402.2 K | 4.58e-05 ± 4.6e-06
402.8 K | 4.76e-05 ± 4.9e-06
403.7 K | 5.19e-05 ± 5.4e-06
405.7 K | 6.67e-05 ± 6.8e-06
406.6 K | 7.2e-05 ± 7.3e-06
406.8 K | 7.03e-05 ± 7.2e-06
410.5 K | 0.0001 ± 1e-05
411.3 K | 0.000102 ± 1.1e-05
412.7 K | 0.000132 ± 1.4e-05
413.4 K | 0.000142 ± 1.4e-05
414.4 K | 0.000148 ± 1.5e-05
418.4 K | 0.000196 ± 2e-05
428.6 K | 0.000443 ± 4.5e-05
432.4 K | 0.000606 ± 6.1e-05

C1=Cc2cccc3cccc1c23 [acenaphthylene]
Crystal
Conditions | vapor or sublimation pressure [kPa]
297.4 K | 0.000488 ± 5.1e-05
297.6 K | 0.000531 ± 5.5e-05
304.6 K | 0.00105 ± 0.00021
304.7 K | 0.00108 ± 0.00022
306.7 K | 0.00114 ± 0.00024
311.9 K | 0.00182 ± 0.00041
314.8 K | 0.00345 ± 0.00088
318.5 K | 0.00345 ± 0.00088
318.6 K | 0.00347 ± 0.00088
319.7 K | 0.00414 ± 0.0011

c1cc2ccc3cccc4ccc(c1)c2c34 [pyrene]
Crystal
Conditions | vapor or sublimation pressure [kPa]
322 K | 8.95e-06 ± 1.1e-06
337.1 K | 5.31e-05 ± 5.4e-06
342.1 K | 9.43e-05 ± 9.6e-06
347.1 K | 0.000147 ± 1.5e-05
352.3 K | 0.000227 ± 2.3e-05
356.8 K | 0.000339 ± 3.5e-05
362.1 K | 0.000599 ± 6.1e-05
372 K | 0.0013 ± 0.00028
381.4 K | 0.00281 ± 0.00069

c1ccc2c(c1)ccc1c3ccccc3ccc21 [chrysene]
Crystal 2
Conditions | vapor or sublimation pressure [kPa]
372.4 K | 1.74e-05 ± 1.8e-06
380.7 K | 3.72e-05 ± 3.8e-06
385.2 K | 5.37e-05 ± 5.5e-06
389.2 K | 7.61e-05 ± 7.7e-06
389.4 K | 7.5e-05 ± 7.6e-06
393.6 K | 0.000103 ± 1.5e-05
394.2 K | 0.000136 ± 1.4e-05
396.1 K | 0.000148 ± 1.5e-05
398.1 K | 0.000168 ± 1.7e-05
398.2 K | 0.000158 ± 1.6e-05
400 K | 0.000202 ± 2.1e-05
400.4 K | 0.000212 ± 2.2e-05
402.8 K | 0.000263 ± 2.7e-05
403 K | 0.000254 ± 2.6e-05
404.8 K | 0.000277 ± 3.4e-05
404.9 K | 0.000292 ± 3e-05
405.1 K | 0.000306 ± 3.6e-05
406.8 K | 0.000336 ± 3.4e-05
408.6 K | 0.000379 ± 3.8e-05
